Experimental data as given in publication PMC8042910, “Adiponectin-mimetic novel nonapeptide rescues aberrant neuronal metabolic-associated memory deficits in Alzheimer’s disease” (Molecular Neurodegeneration, 2021).

Tested on: p-IRS-1 and p-PI3K/Akt/GSK3β (Ser 9) pathways
Experiment: Insulin resistance and downstream insulin signaling in APPswe/ind-overexpressing SH-SY5Y cells, immunoblot
Type: cell-based, human
Conditions: APPswe/ind SH-SY5YIR, Comp. C 10 μM with Os-pep 10 μM
Protocol: Human neuroblastoma SH-SY5Y cells were seeded (in 6-well culture plates for immunoblotting and in chamber slides for immunofluorescence) in DMEM (Dulbecco’s modified Eagle medium) containing 10% fetal bovine serum (FBS) and 1% antibiotics (penicillin-streptomycin) and incubated at 37 °C in humidified air containing 5% CO2. Once the cells reached 70–80% confluence, the cells were transfected using the pCAX vector containing the APPswe/ind gene using Lipofectamine 3000 (Life Technologies) according to the provider’s protocols. AdipoR1 siRNA (h) (SC-60123) and AMPK siRNA (h) (SC-45312) (Santa Cruz Biotechnology, Inc.) were used at a concentration of 10 μM per transfection and expressed for 72 h according to the manufacturer’s protocol (Santa Cruz Biotechnology, Inc.). A negative siRNA (Ambion, Thermo Fisher Scientific) was used as a control. Seventy-two hours after the transfections, the cells were exposed to Os-pep (10 μM) for 12 h and then subjected to immunoblotting and immunofluorescence analyses.
Human neuroblastoma SH-SY5Y cells were treated with 1 µM of insulin for 48 h to produce intrinsic insulin-resistant human neuroblastoma (SH-SY5YIR) cells. After 48 h, SH-SY5YIR cells were overexpressed with human APPswe/ind and subjected with AdipoR1 siRNA which further exposed to 10 nM insulin, Os-pep (10 µM) or compound C (10 µM) for 12 h, and then cell lysates were collected and proceeded accordingly for immunoblotting and ELISA.

SMILES: c1cc(-c2cnn3cc(-c4ccc(OCCN5CCCCC5)cc4)cnc23)ccn1 [Comp. C, reference compound]
- effect on insulin-sensitizing effect of Os-pep: inhibited the insulin-sensitizing effect of Os-pep
